Measurements from patent publication US11980209B2, “Consumables” (GIVAUDAN SA, priority 2007, dated 2024).

Test system: perceived sweetness (panelists)
Test: Sweetness detection threshold of trilobatin in milk (Example 10)
Assay type: in vivo, human
Method: Trilobatin was tested by 6 panelists in whole milk.
Milk samples were 62.5 ppm, 125 ppm, 250 ppm, 500 ppm trilobatin; 1% sucrose, and 2% sucrose.

Structure (SMILES): O=C(CCc1ccc(O)cc1)c1c(O)cc(O[C@@H]2O[C@H](CO)[C@@H](O)[C@H](O)[C@H]2O)cc1O [trilobatin, 1-[4-(beta-D-glucopyranosyloxy)-2,6-dihydroxyphenyl]-3-(4-hydroxyphenyl)-1-propanone]
- Trilobatin sample sweetness compared to sucrose (62.5 ppm in whole milk, 6/6 panelists): below 1% sucrose (6/6)
- Trilobatin sample sweetness compared to sucrose (125 ppm in whole milk, 6/6 panelists): below 1% sucrose (6/6)
- Trilobatin sample sweetness compared to sucrose (250 ppm in whole milk, 6/6 panelists): below 1% sucrose (6/6)
- Trilobatin sample sweetness compared to sucrose (500 ppm in whole milk, 3/6 panelists (below)): below 1% sucrose (3/6)
